# Values quoted from earlier work in publication PMC3166015 (Emerging Infectious Diseases, 2011).
# Tested on: earliest pandemic (H1N1) 2009 virus isolates
# Details: cited from earlier work
row,SMILES,susceptibility of earliest virus isolates
1,"CCOC(=O)C1=C[C@@H](OC(CC)CC)[C@H](NC(C)=O)[C@@H](N)C1 [Oseltamivir, oseltamivir]",sensitive
2,"CC(=O)N[C@H]1[C@H]([C@H](O)[C@H](O)CO)OC(C(=O)O)=C[C@@H]1N=C(N)N [Zanamivir, zanamivir]",sensitive
3,NC12CC3CC(CC(C3)C1)C2 [amantadine],resistant
4,CC(N)C12CC3CC(CC(C3)C1)C2 (stereo not shown) [rimantadine],resistant
